# From patent US7166618B2, “Nitrosated and nitrosylated cyclooxygenase-2 inhibitors, compositions and methods of use” (NitroMed, Inc., priority 1999, dated 2007)
# Biological target: T1, human COX-2 (Homo sapiens, UniProt P35354)
# T1 construct: purchased Cayman Chemical, Ann Arbor, Mich
# T1 sequence (P35354 18-604): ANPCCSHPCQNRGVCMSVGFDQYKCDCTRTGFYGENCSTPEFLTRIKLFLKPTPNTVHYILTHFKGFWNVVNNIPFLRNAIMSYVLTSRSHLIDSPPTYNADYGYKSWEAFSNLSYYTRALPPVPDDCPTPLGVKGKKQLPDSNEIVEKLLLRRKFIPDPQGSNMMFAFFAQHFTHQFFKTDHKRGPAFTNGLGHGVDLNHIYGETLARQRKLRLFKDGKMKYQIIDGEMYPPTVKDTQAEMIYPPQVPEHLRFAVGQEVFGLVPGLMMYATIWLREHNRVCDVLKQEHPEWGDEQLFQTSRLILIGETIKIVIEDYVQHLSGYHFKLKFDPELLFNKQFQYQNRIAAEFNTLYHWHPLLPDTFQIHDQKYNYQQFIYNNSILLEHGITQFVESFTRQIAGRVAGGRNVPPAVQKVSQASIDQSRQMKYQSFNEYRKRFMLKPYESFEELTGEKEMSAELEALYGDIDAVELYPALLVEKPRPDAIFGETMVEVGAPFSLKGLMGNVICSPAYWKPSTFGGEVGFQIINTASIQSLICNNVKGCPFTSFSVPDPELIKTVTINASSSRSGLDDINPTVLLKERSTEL
# Test: Assay for human COX-2 activity (COX Inhibitor Screening Assay, Cayman)
# Format: biochemical
# Conditions: human COX-2, at 10 μM
# Procedure: The human COX-1 and COX-2 activities and the measurement of the prostaglandin products synthesized were performed using the COX Inhibitor Screening Assay (Cayman Chemical, Ann Arbor, Mich., which also contained the Prostaglandin Screening EIA Kit, used for prostaglandin quantification). The test compounds were dissolved at 50 times the highest final reaction concentration in DMSO or any other suitable solvent as stock solutions. These stock solutions were then diluted in the same solvent. Eight glass test tubes (13×100 mm) were placed in a 25° C. water bath. To each test tube was added 950 μL of reaction buffer (0.1 M Tris-HCl, pH 8.0, containing 5 mM EDTA, and 2 mM phenol), 10 μL of 100 µM heme solution, and 10 μL (5 units) of either human COX-1 or COX-2 and the resulting mixture incubated with the enzyme for 2 minutes. Twenty μL of the solvent was added to one tube (100% initial activity or solvent control) and 20 μL of each dilution of the test compound was added to one tube each. Each tube was vortexed immediately after the addition. The enzyme was incubated with the inhibitor for 20 minutes at 25° C. The enzymatic reaction was then initiated by the addition of 10 μL of freshly prepared 10 mM arachidonic acid (neutralized with KOH), vortexed and then incubated for 2 minutes (or, in some cases as indicated, 30 seconds) at 37° C. The reaction was terminated by the addition of 50 μL of 1 M HCl, vortexed and placed at room temperature. One hundred microliters of a saturated stannous chloride solution (50 mg/mL of 0.1 M HCl) was added and the reaction mixture was allowed to stand at room temperature for at least 5 min.
# The prostaglandins (PG) produced in the reactions were assayed, after a 2,000-fold dilution, using the Prostaglandin Screening EIA Kit (Cayman Chemical, Ann Arbor, Mich.). The assay contains an antibody with broad specificity for all the prostaglandin families (PGF, PGE, PGD, and thromboxane B-type) synthesized in the COX-1/COX 2 reactions. The synthesized prostaglandin competes with a PG-tagged acetylcholine esterase tracer for binding to the PG antibody. Binding of synthesized PG lowers the colorimetric development of the Ellman's Reagent (computed as % B/B0). The actual amount of synthesized PG was interpolated from a standard curve using known amounts of supplied prostaglandin E2 (PGE2) (PGE2 concentration vs. % B/B0). The data generated were the mean±standard deviation of triplicate wells in the EIA for a single reaction at a given inhibitor concentration.
smiles,measurement,value
"NS(=O)(=O)c1ccc(-c2c(-c3ccccc3)noc2CO[N+](=O)[O-])cc1 [Example 2b, 4-(5-((Nitrooxy)methyl)-3-phenylisoxazol-4-yl)benzenesulfonamide]",inhibition at 10 µM,100%
